The values below come from ChEMBL document CHEMBL3046926, “Molecular properties prediction, synthesis, and diuretic activity of phenoxy acetic acid bearing pyrazolines” (2013).

The subject of experiment [1] is Rattus norvegicus. Briefly: Induction of diuresis in Rattus norvegicus albino (rat) assessed as urinary K+ excretion at 20 mg/kg, po measured at 0-5 hr after drug administration by standard Lipschitz method (reference value: 0.46 +/-0.006 mEq/L). The format is functional, Urine.
Experiment [2] deals with Rattus norvegicus. Briefly: Induction of diuresis in Rattus norvegicus albino (rat) assessed as total urinary output at 20 mg/kg, po measured at 5-18 hr after drug administration by standard Lipschitz method (reference value: 1.26 +/-0.049 ml). It is filed as functional, Urine.
Experiment [3] relates to Rattus norvegicus. Briefly: Induction of diuresis in Rattus norvegicus albino (rat) assessed as urinary Na+ excretion at 20 mg/kg, po measured at 0-5 hr after drug administration by standard Lipschitz method (reference value: 0.90 +/-0.003 mEq/L). It is filed as functional, Urine.
Experiment [4] deals with Rattus norvegicus. Briefly: Induction of diuresis in Rattus norvegicus albino (rat) assessed as urinary K+ excretion at 20 mg/kg, po measured at 5-18 hr after drug administration by standard Lipschitz method (reference value: 0.22 +/-0.004 mEq/L). The format is functional, Urine.
In experiment [5] the test system is Rattus norvegicus. Kind of experiment: Induction of diuresis in Rattus norvegicus albino (rat) assessed as urinary excretion at 20 mg/kg, po measured at 5-18 hr after drug administration by standard Lipschitz method (reference value: 50.4%). It is filed as functional, Urine.
The subject of experiment [6] is Rattus norvegicus. Briefly: Induction of diuresis in Rattus norvegicus albino (rat) assessed as urinary Cl- excretion at 20 mg/kg, po measured at 0-5 hr after drug administration by standard Lipschitz method (reference value: 0.46 +/-0.005 mEq/L). The format is functional, Urine.
The test system of experiment [7] is Rattus norvegicus. Briefly: Induction of diuresis activity in Rattus norvegicus albino (rat) assessed as urinary excretion at 20 mg/kg, po measured at 5-18 hr after drug administration by standard Lipschitz method against frusemide-treated control (reference value: 0.2 no unit). It is filed as functional, Urine.
Experiment [8] relates to Rattus norvegicus. Kind of experiment: Induction of diuresis in Rattus norvegicus albino (rat) assessed as total urinary output at 20 mg/kg, po measured at 0-5 hr after drug administration by standard Lipschitz method (reference value: 2.46 +/-0.125 ml). The format is functional, Urine.
For experiment [9], the system named is Rattus norvegicus. Briefly: Induction of diuresis in Rattus norvegicus albino (rat) assessed as urinary excretion at 20 mg/kg, po measured at 0-5 hr after drug administration by standard Lipschitz method (reference value: 98.40%). It is filed as functional, Urine.
The subject of experiment [10] is Rattus norvegicus. Briefly: Induction of diuresis activity in Rattus norvegicus albino (rat) assessed as urinary excretion at 20 mg/kg, po measured at 0-5 hr after drug administration by standard Lipschitz method against frusemide-treated control (reference value: 0.5 no unit). The format is functional, Urine.
Experiment [11] has as its system Rattus norvegicus. Kind of experiment: Induction of diuresis action in Rattus norvegicus albino (rat) assessed as urinary excretion at 20 mg/kg, po measured at 0-5 hr after drug administration by standard Lipschitz method against untreated control (reference value: 1 no unit). The format is functional, Urine.
Experiment [12] relates to Rattus norvegicus. Briefly: Induction of diuresis in Rattus norvegicus albino (rat) assessed as urinary Na+ excretion at 20 mg/kg, po measured at 5-18 hr after drug administration by standard Lipschitz method (reference value: 0.65+/-0.006 mEq/L). The format is functional, Urine.
The test system of experiment [13] is Rattus norvegicus. Kind of experiment: Induction of diuresis in Rattus norvegicus albino (rat) assessed as urinary Cl- excretion at 20 mg/kg, po measured at 5-18 hr after drug administration by standard Lipschitz method (reference value: 0.38 +/-0.011 mEq/L). The format is functional, Urine.
The test system of experiment [14] is Rattus norvegicus. Kind of experiment: Induction of diuresis in Rattus norvegicus albino (rat) assessed as normal saline intake at 20 mg/kg, po measured at 5-18 hr after drug administration by standard Lipschitz method (reference value: 2.50 +/-0.036 ml). It is filed as functional.
The subject of experiment [15] is Rattus norvegicus. Kind of experiment: Induction of diuresis action in Rattus norvegicus albino (rat) assessed as urinary excretion at 20 mg/kg, po measured at 5-18 hr after drug administration by standard Lipschitz method against untreated control (reference value: 1 no unit). It is filed as functional, Urine.
Experiment [16] concerns Rattus norvegicus. Briefly: Induction of diuresis in Rattus norvegicus albino (rat) assessed as normal saline intake at 20 mg/kg, po measured at 0-5 hr after drug administration by standard Lipschitz method (reference value: 2.50 +/-0.036 ml). It is filed as functional.
The subject of experiment [17] is Rattus norvegicus. Kind of experiment: Induction of diuresis in Rattus norvegicus albino (rat) assessed as normal saline intake at 1000 mg/kg, po measured at 0-5 hr after drug administration by standard Lipschitz method (reference value: 2.50 +/-0.036 ml). The format is functional.
Experiment [18] concerns Rattus norvegicus. Briefly: Induction of diuresis in Rattus norvegicus albino (rat) assessed as urinary K+ excretion at 1000 mg/kg, po measured at 0-5 hr after drug administration by standard Lipschitz method (reference value: 0.46 +/-0.006 mEq/L). It is filed as functional, Urine.
Experiment [19] has as its system Rattus norvegicus. Kind of experiment: Induction of diuresis in Rattus norvegicus albino (rat) assessed as urinary excretion at 1000 mg/kg, po measured at 0-5 hr after drug administration by standard Lipschitz method (reference value: 98.40%). It is filed as functional, Urine.
The subject of experiment [20] is Rattus norvegicus. Kind of experiment: Induction of diuresis in Rattus norvegicus albino (rat) assessed as urinary K+ excretion at 1000 mg/kg, po measured at 5-18 hr after drug administration by standard Lipschitz method (reference value: 0.22 +/-0.004 mEq/L). The format is functional, Urine.
Experiment [21] concerns Rattus norvegicus. Briefly: Induction of diuresis action in Rattus norvegicus albino (rat) assessed as urinary excretion at 1000 mg/kg, po measured at 5-18 hr after drug administration by standard Lipschitz method against untreated control (reference value: 1 no unit). It is filed as functional, Urine.
Experiment [22] deals with Rattus norvegicus. Briefly: Induction of diuresis in Rattus norvegicus albino (rat) assessed as urinary Na+ excretion at 1000 mg/kg, po measured at 5-18 hr after drug administration by standard Lipschitz method (reference value: 0.65 +/-0.006 mEq/L). The format is functional, Urine.
The subject of experiment [23] is Rattus norvegicus. Briefly: Induction of diuresis in Rattus norvegicus albino (rat) assessed as normal saline intake at 1000 mg/kg, po measured at 5-18 hr after drug administration by standard Lipschitz method (reference value: 2.50 +/-0.036 ml). The format is functional.
In experiment [24] the test system is Rattus norvegicus. Kind of experiment: Induction of diuresis in Rattus norvegicus albino (rat) assessed as urinary excretion at 1000 mg/kg, po measured at 5-18 hr after drug administration by standard Lipschitz method (reference value: 50.4%). It is filed as functional, Urine.
Experiment [25] deals with Rattus norvegicus. Briefly: Induction of diuresis activity in Rattus norvegicus albino (rat) assessed as urinary excretion at 1000 mg/kg, po measured at 5-18 hr after drug administration by standard Lipschitz method against frusemide-treated control (reference value: 0.2 no unit). The format is functional, Urine.
Experiment [26] has as its system Rattus norvegicus. Kind of experiment: Induction of diuresis in Rattus norvegicus albino (rat) assessed as urinary Cl- excretion at 1000 mg/kg, po measured at 5-18 hr after drug administration by standard Lipschitz method (reference value: 0.38 +/-0.011 mEq/L). The format is functional, Urine.
Experiment [27] concerns Rattus norvegicus. Briefly: Induction of diuresis activity in Rattus norvegicus albino (rat) assessed as urinary excretion at 1000 mg/kg, po measured at 0-5 hr after drug administration by standard Lipschitz method against frusemide-treated control (reference value: 0.5 no unit). It is filed as functional, Urine.
In experiment [28] the test system is Rattus norvegicus. Briefly: Induction of diuresis action in Rattus norvegicus albino (rat) assessed as urinary excretion at 1000 mg/kg, po measured at 0-5 hr after drug administration by standard Lipschitz method against untreated control (reference value: 1 no unit). It is filed as functional, Urine.
The subject of experiment [29] is Rattus norvegicus. Briefly: Induction of diuresis in Rattus norvegicus albino (rat) assessed as total urinary output at 1000 mg/kg, po measured at 0-5 hr after drug administration by standard Lipschitz method (reference value: 2.46 +/-0.125 ml). The format is functional, Urine.
In experiment [30] the test system is Rattus norvegicus. Briefly: Induction of diuresis in Rattus norvegicus albino (rat) assessed as urinary Cl- excretion at 1000 mg/kg, po measured at 0-5 hr after drug administration by standard Lipschitz method (reference value: 0.46 +/-0.005 mEq/L). It is filed as functional, Urine.
Experiment [31] concerns Rattus norvegicus. Kind of experiment: Induction of diuresis in Rattus norvegicus albino (rat) assessed as total urinary output at 1000 mg/kg, po measured at 5-18 hr after drug administration by standard Lipschitz method (reference value: 1.26 +/-0.049 ml). It is filed as functional, Urine.
Experiment [32] concerns Rattus norvegicus. Briefly: Induction of diuresis in Rattus norvegicus albino (rat) assessed as urinary Na+ excretion at 1000 mg/kg, po measured at 0-5 hr after drug administration by standard Lipschitz method (reference value: 0.90 +/-0.003 mEq/L). The format is functional, Urine.

Each structure is given as a SMILES string.

Take `COc1cc(C2CC(c3ccc(O)cc3)=NN2C(=O)c2ccc(Cl)cc2)ccc1OCC(=O)O` (centres undefined): the Activity in the experiment on Rattus norvegicus [1] stood at 0.45 mEq/L; in the experiment on Rattus norvegicus [2] it was 5.21 mL; in the experiment on Rattus norvegicus [3], 0.87 mEq/L; in the experiment on Rattus norvegicus [4], 0.56 mEq/L; in the experiment with Rattus norvegicus [5] it was 183.45%; in the experiment on Rattus norvegicus [6], 0.46 mEq/L. The Activity in the experiment on Rattus norvegicus [8] came out at 2.5 mL; in the experiment with Rattus norvegicus [9] it was 89.28%; in the experiment with Rattus norvegicus [12], 1.95 mEq/L; in the experiment with Rattus norvegicus [13] it was 0.95 mEq/L; with Rattus norvegicus [14], 2.84 mL; in the experiment with Rattus norvegicus [16], 2.84 mL. For the same molecule, the Ratio was determined as 0.74 in the experiment with Rattus norvegicus [7], 0.45 with Rattus norvegicus [10], 0.9 in the experiment with Rattus norvegicus [11] and 3.66 in the experiment with Rattus norvegicus [15].

As for `COc1cc(C2CC(c3ccc(Cl)cc3)=NN2C(=O)c2ccc(C)cc2)ccc1OCC(=O)O` (centres undefined), the Activity in the experiment with Rattus norvegicus [1] was 0.81 mEq/L; with Rattus norvegicus [2] it was 12.18 mL; in the experiment with Rattus norvegicus [3], 1.56 mEq/L; in the experiment on Rattus norvegicus [4], 2.66 mEq/L; in the experiment on Rattus norvegicus [5], 466.66%; in the experiment with Rattus norvegicus [6], 0.76 mEq/L. The Activity worked out at 5.83 mL in the experiment with Rattus norvegicus [8]; 223.37% with Rattus norvegicus [9]; 4.31 mEq/L in the experiment with Rattus norvegicus [12]; 2.69 mEq/L in the experiment with Rattus norvegicus [13]; 2.61 mL with Rattus norvegicus [14]; 2.61 mL in the experiment with Rattus norvegicus [16]. Besides, the Ratio with Rattus norvegicus [7] was determined as 1.88; with Rattus norvegicus [10] it was 1.11; with Rattus norvegicus [11], 2.2; in the experiment on Rattus norvegicus [15], 9.32.

In the case of `COc1cc(C2CC(c3ccc(Cl)cc3)=NN2C(=O)c2ccc(Cl)cc2)ccc1OCC(=O)O` (centres undefined), the Activity with Rattus norvegicus [1] stood at 1.55 mEq/L; in the experiment on Rattus norvegicus [2], 7.43 mL; in the experiment on Rattus norvegicus [3] it was 2.82 mEq/L; in the experiment with Rattus norvegicus [4], 1.76 mEq/L; in the experiment on Rattus norvegicus [5], 278%; in the experiment with Rattus norvegicus [6], 1.94 mEq/L. Moreover, the Activity came out at 6.06 mL with Rattus norvegicus [8]; 226.96% in the experiment on Rattus norvegicus [9]; 3.26 mEq/L in the experiment on Rattus norvegicus [12]; 1.77 mEq/L in the experiment on Rattus norvegicus [13]; 2.67 mL in the experiment on Rattus norvegicus [14]; 2.67 mL in the experiment on Rattus norvegicus [16]. In addition, the Ratio came to 1.12 with Rattus norvegicus [7], 1.11 with Rattus norvegicus [10], 2.2 with Rattus norvegicus [11] and 5.56 in the experiment on Rattus norvegicus [15].

For the molecule `NC(N)=O` [UREA], the Activity worked out at 2.73 mL in the experiment with Rattus norvegicus [17]; 0.94 mEq/L in the experiment on Rattus norvegicus [18]; 187.91% in the experiment with Rattus norvegicus [19]; 2.82 mEq/L in the experiment on Rattus norvegicus [20]; 2.82 mEq/L in the experiment on Rattus norvegicus [22]; 2.73 mL in the experiment with Rattus norvegicus [23]. Besides, the Activity in the experiment on Rattus norvegicus [24] worked out at 230.76%; in the experiment with Rattus norvegicus [26], 1.94 mEq/L; in the experiment with Rattus norvegicus [29] it was 5.13 mL; in the experiment on Rattus norvegicus [30], 0.95 mEq/L; in the experiment with Rattus norvegicus [31], 6.3 mL; in the experiment on Rattus norvegicus [32], 1.91 mEq/L. For the same molecule, the Ratio in the experiment with Rattus norvegicus [21] came out at 4.6; in the experiment on Rattus norvegicus [25], 0.93; in the experiment with Rattus norvegicus [27], 0.96; in the experiment on Rattus norvegicus [28] it was 1.9.
